Source: US9172221B2, “Converter building” (ABB Technology AG, priority 2011, dated 2015)

Assays:
[1] = toxicity / lethal concentration LC50
[2] = in vivo

Row | Compound | risk for human toxicity ([1]; concluded from available results of mammalian HFC (hydrofluorocarbon) tests) | toxicity (in words) [2] | LC50 ([1]; in vivo)
1 | FC(F)(F)COC(F)(F)F [2,2,2-trifluoroethyl-trifluoromethyl ether] | low risk for human toxicity |  | 
2 | O=C(C(F)(F)F)C(F)(C(F)(F)F)C(F)(F)F [C5-ketone, 1,1,1,3,4,4,4-heptafluoro-3-(trifluoromethyl)butan-2-one] |  | practically non-toxic | 
3 | O=C(C(F)(F)C(F)(F)F)C(F)(C(F)(F)F)C(F)(F)F [C6-ketone, 1,1,1,2,4,4,5,5,5-Nonafluoro-2-(trifluoromethyl)pentan-3-one] |  | non-toxic | about 100,000 ppm
